# Test results published in patent US20200316091A1, “METHOD FOR PROVIDING CONTRACEPTION” (LABORATOIRE HRA-PHARMA, priority 2019, published 2020).
# Experiments:
# [1] = tested on: ovarian activity and ovulation in women; experiment: Prospective, randomized, parallel-group clinical study of ovarian activity after ellaOne taken after three missed COC pills; type: in vivo; details: for ovulation with risk of pregnancy: Arm 1, COC resumed same day as UPA 30 mg, any time of experimental cycle, N=26
# Method: To determine the effect on ovarian activity and ovulation, of waiting five days before re-starting combined oral contraception (COC), or restarting immediately, having taken ulipristal acetate (UPA) for emergency contraception (EC) after missing three COC pills.
# Women were enrolled for three cycles of COC use in a 21/7 regimen. In cycle 3 all women omitted COC pills for three consecutive days (days 5, 6, 7) and on day 8 took UPA-EC (30 mg). Half the women restarted their COC pills that same day while the remainder waiting for five days before restarting. Transvaginal ultrasound (TVUS) and blood sampling for estrogen and progesterone (E and P) was undertaken in all women on days 4, 8, 11, 13, 15, 18, 22 and 26. If a follicle of >13 mm diameter was seen, TVUS and blood sampling were performed daily until a post-ovulatory follicle was seen.
# Women aged 18-30, weighing ≤30 kg/m^2 participated in the study during use of three consecutive packets of COCP. Women with contraindications to the COC or with conditions associated with anovulation (e.g. polycystic ovarian syndrome), and women who were breastfeeding or using any other hormonal contraception or an intrauterine device (IUD) were excluded. Screening was undertaken during cycle 1. Throughout the study women kept a daily diary of pill intake and vaginal bleeding. All women were instructed to take their pills at the same time every evening and to follow standard rules during the first two cycles of pill use for missed pills or for vomiting after taking a pill. The duration of COC intake in cycle 1 was adjusted (to no less than 14 and no more than 21 pills) to allow the first day of cycle 2 (baseline cycle—BSL) to fall on a weekday. After a seven-day hormone free interval (HFI) all women switched to the study COC containing 30 μg ethinyl estradiol/150 μg levonorgestrel with seven placebo tablets. Cycle three (Experimental cycle—EXP), started after a seven-day HFI at the end of BSL. After transvaginal ultrasound (TVUS) on day 1 of pill intake women were randomized so that an equal number of women with ovarian follicles of diameter ≤10 mm, or >10 mm and ≤13 mm or >13 mm were allocated to one of two study arms. After 4 days of COC, all women deliberately missed their COC pill on three consecutive days (5, 6, 7) and on the morning of day 8 all took a single 30 mg tablet of ellaOne® (ulipristal acetate 30 mg). Women in arm 1 of the study (immediate re-start) resumed daily COC intake that evening (D8) while those in arm 2 waited 5 days, re-starting their OC pill on the evening of D13 (delayed re-start). Once restarted, the COCP was continued until the packet was finished. A high sensitivity urinary pregnancy test was undertaken on day 1 of BSL and EXP and at the final study visit one or two days after the HFI following the end of the pill pack. Adverse event information was collected at every visit and blood sampling for haemoglobin and liver function was performed four times during the study.
# An ovarian activity score developed from the Hoogland score (Hoogland and Skouby 1993, Contraception, 1993. 47(6): p. 583-90). The ovary was considered quiescent (OSq) if estradiol concentration was ≤0.1 nmol/L and progesterone ≤5 nmol/L even if a follicle of >13 mm was present. […] Ovulation was considered at risk of pregnancy (OSp) if there was a postovulatory image on TVUS and progesterone concentrations were >30 nmol/L on one occasion or between 10-30 nmol/L on two consecutive occasions.
# The proportion of women who were at risk of pregnancy (OSp) at any time during the experimental cycle, including those who ovulated within the five days following ellaOne® intake, was estimated and the exact (Clopper-Pearson) two-sided 95% confidence interval was provided for each arm. The difference between the two arms was tested through an exact without stratum adjustment due to insufficient number of women in the self-weighted strata. […]
# ovulation in women = details: COC started two days after ulipristal acetate intake; cited from earlier work
# [2] = Arm 1 immediate COCP re-start (D8), experimental cycle D 1
# [3] = Arm 1 immediate COCP re-start (D8), experimental cycle D 4
# [4] = Arm 1 immediate COCP re-start (D8), experimental cycle D 8
# [5] = Arm 1 immediate COCP re-start (D8), experimental cycle D 11
# [6] = Arm 1 immediate COCP re-start (D8), experimental cycle D 13
# [7] = Arm 1 immediate COCP re-start (D8), experimental cycle D 15
# [8] = Arm 1 immediate COCP re-start (D8), experimental cycle D 18
# [9] = Arm 1 immediate COCP re-start (D8), experimental cycle D 22
# [10] = Arm 1 immediate COCP re-start (D8), experimental cycle D 26
# [11] = Arm 2 delayed COCP re-start (D13), experimental cycle D 1
# [12] = Arm 2 delayed COCP re-start (D13), experimental cycle D 4
# [13] = Arm 2 delayed COCP re-start (D13), experimental cycle D 8
# [14] = Arm 2 delayed COCP re-start (D13), experimental cycle D 11
# [15] = Arm 2 delayed COCP re-start (D13), experimental cycle D 13
# [16] = Arm 2 delayed COCP re-start (D13), experimental cycle D 15
# [17] = Arm 2 delayed COCP re-start (D13), experimental cycle D 18
# [18] = Arm 2 delayed COCP re-start (D13), experimental cycle D 22
# [19] = Arm 2 delayed COCP re-start (D13), experimental cycle D 26
compound,measurement,setting,value
"CC(=O)O[C@]1(C(C)=O)CC[C@H]2[C@@H]3CCC4=CC(=O)CCC4=C3[C@@H](c3ccc(N(C)C)cc3)C[C@@]21C [ellaOne, 17α-acetoxy-11β-[4-N,N-dimethylamino-phenyl]-19-norpregna-4,9-diene-3,20-dione]",ovulation with risk of pregnancy,[1]; listed as Ella,no ovulation at risk of pregnancy occurred
same,ovulation with risk of pregnancy,[1]; listed as Ellaone,no woman
same,number of women with ovarian activity without risk of pregnancy (OSa),"[1]; Arm 1, immediate COC re-start, experimental cycle",one
same,"OSa (ovarian activity not at risk of pregnancy), women with status/women monitored",[1]; [2],0/26
same,"OSp (ovulation at risk of pregnancy), women with status/women monitored",[1]; [2],0/26
same,"OSq (ovary quiescent), women with status/women monitored",[1]; [2],26/26
same,"OSa (ovarian activity not at risk of pregnancy), women with status/women monitored",[1]; [3],1/26
same,"OSp (ovulation at risk of pregnancy), women with status/women monitored",[1]; [3],0/26
same,"OSq (ovary quiescent), women with status/women monitored",[1]; [3],25/26
same,"OSa (ovarian activity not at risk of pregnancy), women with status/women monitored",[1]; [4],2/26
same,"OSp (ovulation at risk of pregnancy), women with status/women monitored",[1]; [4],0/26
same,"OSq (ovary quiescent), women with status/women monitored",[1]; [4],24/26
same,"OSa (ovarian activity not at risk of pregnancy), women with status/women monitored",[1]; [5],1/26
same,"OSp (ovulation at risk of pregnancy), women with status/women monitored",[1]; [5],0/26
same,"OSq (ovary quiescent), women with status/women monitored",[1]; [5],25/26
same,"OSa (ovarian activity not at risk of pregnancy), women with status/women monitored",[1]; [6],1/26
same,"OSp (ovulation at risk of pregnancy), women with status/women monitored",[1]; [6],0/26
same,"OSq (ovary quiescent), women with status/women monitored",[1]; [6],25/26
same,"OSa (ovarian activity not at risk of pregnancy), women with status/women monitored",[1]; [7],1/26
same,"OSp (ovulation at risk of pregnancy), women with status/women monitored",[1]; [7],0/26
same,"OSq (ovary quiescent), women with status/women monitored",[1]; [7],25/26
same,"OSa (ovarian activity not at risk of pregnancy), women with status/women monitored",[1]; [8],1/26
same,"OSp (ovulation at risk of pregnancy), women with status/women monitored",[1]; [8],0/26
same,"OSq (ovary quiescent), women with status/women monitored",[1]; [8],25/26
same,"OSa (ovarian activity not at risk of pregnancy), women with status/women monitored",[1]; [9],1/26
same,"OSp (ovulation at risk of pregnancy), women with status/women monitored",[1]; [9],0/26
same,"OSq (ovary quiescent), women with status/women monitored",[1]; [9],25/26
same,"OSa (ovarian activity not at risk of pregnancy), women with status/women monitored",[1]; [10],1/26
same,"OSp (ovulation at risk of pregnancy), women with status/women monitored",[1]; [10],0/26
same,"OSq (ovary quiescent), women with status/women monitored",[1]; [10],24/25
same,proportion of women who ovulated with risk of pregnancy,"[1]; Arm 2, COC re-start delayed five days after UPA 30 mg, experimental cycle, CI 5.0-38.8, p=0.042 vs Arm 1",17.4%
same,number of women who ovulated with risk of pregnancy,"[1]; Arm 2, COC re-start delayed five days, more than 5 days after UPA-EC, before end of experimental cycle, N=23",Four
same,number of women with resumption of follicle growth,"[1]; Arm 2, delayed COC re-start, remainder of experimental cycle",Eight
same,"OSa (ovarian activity not at risk of pregnancy), women with status/women monitored",[1]; [11],1/23
same,"OSp (ovulation at risk of pregnancy), women with status/women monitored",[1]; [11],0/23
same,"OSq (ovary quiescent), women with status/women monitored",[1]; [11],22/23
same,"OSa (ovarian activity not at risk of pregnancy), women with status/women monitored",[1]; [12],3/23
same,"OSp (ovulation at risk of pregnancy), women with status/women monitored",[1]; [12],0/23
same,"OSq (ovary quiescent), women with status/women monitored",[1]; [12],20/23
same,"OSa (ovarian activity not at risk of pregnancy), women with status/women monitored",[1]; [13],4/23
same,"OSp (ovulation at risk of pregnancy), women with status/women monitored",[1]; [13],0/23
same,"OSq (ovary quiescent), women with status/women monitored",[1]; [13],19/23
same,"OSa (ovarian activity not at risk of pregnancy), women with status/women monitored",[1]; [14],6/23
same,"OSp (ovulation at risk of pregnancy), women with status/women monitored",[1]; [14],0/23
same,"OSq (ovary quiescent), women with status/women monitored",[1]; [14],17/23
same,"OSa (ovarian activity not at risk of pregnancy), women with status/women monitored",[1]; [15],5/22
same,"OSp (ovulation at risk of pregnancy), women with status/women monitored",[1]; [15],0/22
same,"OSq (ovary quiescent), women with status/women monitored",[1]; [15],17/22
same,"OSa (ovarian activity not at risk of pregnancy), women with status/women monitored",[1]; [16],7/23
same,"OSp (ovulation at risk of pregnancy), women with status/women monitored",[1]; [16],0/23
same,"OSq (ovary quiescent), women with status/women monitored",[1]; [16],16/23
same,"OSa (ovarian activity not at risk of pregnancy), women with status/women monitored",[1]; [17],8/23
same,"OSp (ovulation at risk of pregnancy), women with status/women monitored",[1]; [17],1/23
same,"OSq (ovary quiescent), women with status/women monitored",[1]; [17],14/23
same,"OSa (ovarian activity not at risk of pregnancy), women with status/women monitored",[1]; [18],2/23
same,"OSp (ovulation at risk of pregnancy), women with status/women monitored",[1]; [18],4/23
same,"OSq (ovary quiescent), women with status/women monitored",[1]; [18],17/23
same,"OSa (ovarian activity not at risk of pregnancy), women with status/women monitored",[1]; [19],4/23
same,"OSp (ovulation at risk of pregnancy), women with status/women monitored",[1]; [19],4/23
same,"OSq (ovary quiescent), women with status/women monitored",[1]; [19],15/23
same,interference between the COC and EllaOne,[1]; COC resumed the same day as EllaOne 30 mg,no interference
same,effect of starting COC on efficacy of ulipristal acetate to inhibit or delay ovulation,ovulation in women,significantly impairs efficacy
